According to patent US6180615A, “Propargyl phenyl ether A2A receptor agonists” (CV Therapeutics, Inc., priority 1999, dated 2001):

Biological target: T1, A2A receptor (Sus scrofa, UniProt K9IW67)
T1 construct: from tissue; host or cells: pig striatum membranes
Experiment: affinity for the A2A receptor in a pig striatum membrane prep (displacement of tritiated antagonist ZM 241385)
Format: binding
Settings: pig striatal membranes, adenosine deaminase, 50 mM Tris pH 7.4, 2 nM tritiated ZM 241385, 23° C. for 2 h
Method: Compositions of this invention were assayed to determine their affinity for the A2A receptor in a pig striatum membrane prep. 0.2 mg of pig striatal membranes were treated with adenosine deaminase and 50 mM Tris buffer (pH=7.4) followed by mixing. To the pig membranes was added 2 μL of serially diluted DMSO stock solution of the compounds of this invention at concentrations ranging from 100 μM to 10 nM or the control received 2 μL of DMSO alone, then the tritiated antagonist ZM 241385 in Tris buffer (50 mM, pH of 7.4) was added to achieve a final concentration of 2 nM . After incubation at 23° C. for 2 h, the solutions were filtered using a membrane harvester using multiple washing of the membranes (3×). The filter disks where counted in scintillation cocktail affording the amount of displacement of tritiated ZM by the competitive binding compositions of this invention. Greater than a 5 point curve was used to generate IC50's and the number of experiments (n) is indicated in the column marked in Table 1 below.

T1 sequence (K9IW67 1-409): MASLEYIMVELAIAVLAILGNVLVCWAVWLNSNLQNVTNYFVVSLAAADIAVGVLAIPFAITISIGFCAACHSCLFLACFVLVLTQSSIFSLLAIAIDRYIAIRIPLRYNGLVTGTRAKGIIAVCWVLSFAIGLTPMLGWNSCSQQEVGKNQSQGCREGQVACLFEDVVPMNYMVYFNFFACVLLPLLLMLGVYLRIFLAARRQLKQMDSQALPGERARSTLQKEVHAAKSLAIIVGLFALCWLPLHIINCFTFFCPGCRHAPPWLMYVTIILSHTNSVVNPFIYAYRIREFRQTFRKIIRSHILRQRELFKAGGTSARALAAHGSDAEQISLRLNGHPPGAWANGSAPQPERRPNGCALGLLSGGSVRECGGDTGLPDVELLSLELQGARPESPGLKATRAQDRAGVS

Structure (SMILES)	Ki
Nc1nc(C#CCOc2ccccc2-c2ccccc2)nc2c1ncn2[C@@H]1O[C@H](CO)[C@@H](O)[C@H]1O [Compound 10, (4S,2R,3R,5R)-2-{6-amino-2-[3-(2-phenylphenoxy)prop-1-ynyl]purin-9-yl}-5-(hydroxymethyl)oxolane-3,4-diol]	100 to 1000 nM
Nc1nc(C#CCOc2ccccc2)nc2c1ncn2[C@@H]1O[C@H](CO)[C@@H](O)[C@H]1O [Compound 11, (4S,2R,3R,5R)-2-[6-amino-2-(3-phenoxyprop-1-ynyl)purin-9-yl]-5-(hydroxymethyl)oxolane-3,4-diol]	10 to 100 nM
N#Cc1ccc(OCC#Cc2nc(N)c3ncn([C@@H]4O[C@H](CO)[C@@H](O)[C@H]4O)c3n2)cc1 [Compound 12, 4-(3-{9-[(4S,2R,3R,5R)-3,4-dihydroxy-5-(hydroxymethyl)oxolan-2-yl]-6-aminopurin-2-yl}prop-2-ynyloxy)benzenecarbonitrile]	100 to 1000 nM
Nc1nc(C#CCOc2ccc(-c3ccccc3)cc2)nc2c1ncn2[C@@H]1O[C@H](CO)[C@@H](O)[C@H]1O [Compound 13, (4S,2R,3R,5R)-2-{6-amino-2-[3-(4-phenylphenoxy)prop-1-ynyl]purin-9-yl}-5-(hydroxymethyl)oxolane-3,4-diol]	1000 to 10000 nM
Nc1nc(C#CCOc2ccccc2Cc2ccccc2)nc2c1ncn2[C@@H]1O[C@H](CO)[C@@H](O)[C@H]1O [Compound 14]	100 to 1000 nM
Nc1nc(C#CCOc2cccc3c2OCO3)nc2c1ncn2[C@@H]1O[C@H](CO)[C@@H](O)[C@H]1O [Compound 15, 2-[2-(3-(2H-benzo[2,3-d]1,3-dioxolen-4-yloxy)prop-1-ynyl)-6-aminopurin-9-yl](4S,2R,3R,5R)-5-(hydroxymethyl)oxolane-3,4-diol]	10 to 100 nM
CC(C)(C)c1cc(OCC#Cc2nc(N)c3ncn([C@@H]4O[C@H](CO)[C@@H](O)[C@H]4O)c3n2)cc(C(C)(C)C)c1 [Compound 16, (4S,2R,3R,5R)-2-(6-amino-2-{3-[3,5-bis(tert-butyl)phenoxy]prop-1-ynyl}purin-9-yl)-5-(hydroxymethyl)oxolane-3,4-diol]	1000 to 10000 nM
